Measured values from patent publication US12540117B2, “Aniline compound used as RORγ regulator” (SHANGHAI LITEDD CO., LTD., priority 2020, dated 2026).

Columns and labels:
[1] = Metabolic stability in mouse liver microsomes; assay type: in vitro ADME, CD-1 mice; conditions: for half-life: CD-1, 0.5 mg protein/mL; for microsomal CLint: CD-1, read-out: CLint(mic)
Source text: (§1) According to standard methods for investigating in vitro metabolic stability in the art, e.g., the methods described in Kerns, Edward H. and Di Li (2008). Drug-like Properties: Concepts, Structure Design and Methods: from ADME to Toxicity Optimisation. San Diego: Academic Press; Di, Li et al., Optimisation of a Higher Throughput Microsomal Stability Screening Assay for Profiling Drug Discovery Candidates, J. Biomol. Screen. 2003, 8(4), 453, the liver microsomal metabolic stability test of the compounds of the present disclosure was carried out analogously as follows. The incubation system comprising 0.5 mg protein/mL microsomes, cofactors, and PBS, was pre-incubated at 37° C. for 3 min, and then added the substrate (i.e., the test compounds) to initiate the reaction. Samples were taken at 0, 1, 5, 10, 15, 20, 30 and 60 min from the start of the reaction, and an appropriate terminator was added to terminate the reaction. Sample treatment (n=3): appropriate samples were added respectively, vortexed and centrifuged at high speed. The supernatants were collected and detected for the substrate by HPLC-MS/MS. The peak area at the 0 mm was taken as 100%. The peak areas at other time points were converted to percentages of remaining. The natural logarithms of the percentages of remaining at each time point was plotted against the incubation time, and the slope (−k) was calculated by linear regression. Then, Clint (μL/min/mg) and half-life (T½, min.) of the compounds were calculated following the equation: Inherent clearance rate (Clint)=(k*Volume of incubation solution)/Mass of liver microsomes.

[2] = tested on: Th17 cells differentiation and secretion of IL-17; experiment: Inhibition of Th17 differentiation in human PBMC (IL-17 ELISA); assay type: cell-based; conditions: for Emax: Homo sapiens, PBMC, maximum inhibition rate, maximum concentration 3 μM; for IC50: IL-17 secretion, human PBMC, 48 hours
Method: Test procedure: the PBMC cells were first thawed and plated, and then stimulated with the stimulating factors (anti-hCD28: 5 μg/mL; rhTGF-β1: 5 ng/mL; rhIL-6: 20 ng/mL; rhIL-23: 10 ng/mL) to differentiate to Th17, while different concentrations of compounds were added, with the maximum concentration starting from 3 μM. After 48 hours, the supernatant was collected for IL-17 ELISA detection. The inhibition rates of the compounds to inhibit the secretion of IL-17 by Th17 cells were determined, as compared with the vehicle group, and the IC50 values were fitted with Graphad8.0.

[3] = Pharmacokinetic (PK) assay in mice; assay type: in vivo, C57BL/6 mice; conditions: for AUC(0-t) / Cmax / half-life / Vd / bioavailability: C57BL/6, mouse, plasma; for Vd: read-out: Vss; for bioavailability: Po 5 mg/kg vs IV 1 mg/kg
Method: The PK of each compound was determined as follows: 6 C57BL/6 mice (obtained from Shanghai Lingchang Biotechnology Co., Ltd.) were divided into two groups with 3 in each group. One group was administered intravenously at a dose of 1 mg/kg in the vehicle of 5% DMSO/95% (20% Captisol); the other group was administered by oral gavage at a dose of 5 mg/kg in the vehicle of 0.5% CMC-Na/0.5% Tween 80. Blood samples were collected from saphenous vein of lower leg in each group at 0, 0.083, 0.25, 0.5, 1, 2, 4, 6, 8 and 24 h after administration. Approximately 40 μL of the blood samples were collected into anticoagulant tubes containing EDTA-K2 Immediately after collection, the tubes were inverted at least 5 times to ensure uniform mixing, and then placed on ice. The blood samples collected at each time point were centrifuged at 4° C., 8000 rpm for 5 minutes to obtain plasma. Another 1.5 mL centrifuge tube was marked with the compound name, animal number, and time point, and the plasma was transferred to this tube. The plasma was stored at −80° C. until analysis.
Compound concentrations in the plasma were determined by UPLC-MS/MS method, and the pharmacokinetic parameters were calculated from the obtained data by Phoenix WinNolin 6.4 pharmacokinetic software.

RORγt = target: T1, RORγt (Homo sapiens, UniProt P51449); experiment: In vitro luciferase reporter assay of RORγt inhibition (GAL4-RORγ-LBD in HEK293T); conditions: for Emax: HEK-293T, relative maximum inhibition rate relative to AZD-0284 at 10 μM; for IC50: IC50, RORγt luciferase reporter gene, HEK293T
T1 sequence (P51449 269-508 limits assumed): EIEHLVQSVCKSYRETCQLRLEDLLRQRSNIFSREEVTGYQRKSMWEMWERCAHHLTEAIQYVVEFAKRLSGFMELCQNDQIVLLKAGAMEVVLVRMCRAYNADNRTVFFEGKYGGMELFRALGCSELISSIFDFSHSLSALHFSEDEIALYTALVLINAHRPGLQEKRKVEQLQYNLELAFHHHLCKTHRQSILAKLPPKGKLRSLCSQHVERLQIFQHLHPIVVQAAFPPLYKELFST
Source text: The RORγ-LBD coding sequence was inserted into pBIND plasmid (Promega, E1581). The expression vector and a reporter vector (pGL4.35 carrying a stably integrated luciferase reporter gene driven by GAL4 promoter) were co-expressed in HEK293T host cells. When the inhibitor binds to the corresponding chimeric receptor, the chimeric receptor binds to the GAL4 binding site on the reporter gene carrier and inhibits reporter gene expression. The inhibition activity of the compounds on RORγ was determined according to the intensity of the chemiluminescence signal.
2.2 Cell Transfection • a) Balancing the Trans-IT transfection reagent at room temperature; • b) Adding 20 μl of the transfection reagent and 600 μl of Opti-MEM™ medium without contacting the tube wall, mixing uniformly through blowing and pipetting by a pipette gun, and allowing to stand at room temperature for 5 minutes; • c) Adding 10 μg of the plasmid to the transfection reagent (see Step 2.2.b), and allowing to stand at room temperature for 20 minutes; • Plasmids: 5 μg of pBIND-RORγ and 5 μg of pGL4.35 plasmids were respectively added therein; • d) Adding the mixed DNA transfection reagent to a 100 mm cell culture dish (see Step 2.1); • e) Placing the dish in an incubator at 37° C. and 5% CO2 for 5 h. […] Calculation of % Inhibition
[formula] • RLUcmpd: fluorescence value of test compounds • RLUpositive: average value of positive control • RLUvehicle: average value of negative control
IC50s of the compounds were calculated by fitting the % Inhibition and the logarithm values of the compound concentration using Graphad 8.0.

[4] = Metabolic stability in human liver microsomes; assay type: in vitro ADME; conditions: for half-life: 0.5 mg protein/mL; for microsomal CLint: read-out: CLint(mic)
Source text: as §1

Row | Structure (SMILES) | half-life [1] [h] | microsomal CLint [1] [µL/min/mg] | Remaining % (T = 60 min) [1] [%] | Emax [2] [%] | IC50 [2] [nM] | AUC(0-t) ([3]; IV, 1 mg/kg) [ng·h/mL] | Cmax ([3]; IV, 1 mg/kg) [ng/mL] | half-life ([3]; IV, 1 mg/kg) [h] | Vd ([3]; IV, 1 mg/kg) [L/kg] | bioavailability [3] [%] | AUC(0-t) ([3]; Po, 5 mg/kg) [ng·h/mL] | Cmax ([3]; Po, 5 mg/kg) [ng/mL] | half-life ([3]; Po, 5 mg/kg) [h] | CL_obs ([3]; IV, 1 mg/kg) [mL/min/kg] | Emax (RORγt) [%] | IC50 (RORγt) [nM] | half-life [4] [h] | Remaining % (T = 60 min) [4] [%] | microsomal CLint [4] [µL/min/mg]
1 | CCS(=O)(=O)c1ccc2c(c1)CCN(C(C)=O)C2C(=O)Nc1ccc(C(O)(C(F)(F)F)C(F)(F)F)cc1 (single isomer, unassigned) [Example 2, (R)-2-acetyl-6-(ethylsulfonyl)-N-(4-(1,1,1,3,3,3-hexafluoro-2-hydroxypropan-2-yl)phenyl)-1,2,3,4-tetrahydroisoquinoline-1-carboxamide or (S)-2-acetyl-6-(ethylsulfonyl)-N-(4-(1,1,1,3,3,3-hexafluoro-2-hydroxypropan-2-yl)phenyl)-1,2,3,4-tetrahydroisoquinoline-1-carboxamide] | > 2.42 | < 9.6 | 102.3 | 78.3 | 22.7 | 1300 | 2310 | 1.78 | 1.06 | 82.1 | 5330 | 553 | 3.31 | 12.8 | 100 | 8 | > 2.42 | 82.2 | < 9.6
2 | CCS(=O)(=O)c1ccc2c(c1)CCN(C(C)=O)C2C(=O)Nc1ccc(C(O)(C(F)(F)F)C(F)(F)F)cc1 (racemic) [Example 1, 2-Acetyl-6-(ethylsulfonyl)-N-(4-(1,1,1,3,3,3-hexafluoro-2-hydroxypropan-2-yl)phenyl)-1,2,3,4-tetrahydroisoquinoline-1-carboxamide] | > 2.42 | < 9.6 | 94.5 | 79 | 51.4 | 1850 | 1390 | 5.09 | 2.71 | 84 | 9640 | 816 | 3.91 | 7.12 | 102 | 19.1 | > 2.42 | 94.2 | < 9.6
3 | CCS(=O)(=O)c1cc2c(s1)C(C(=O)Nc1ccc(C(O)(C(F)(F)F)C(F)(F)F)cc1)N(C(C)=O)CC2 (centres unmarked) [Example 6, 6-Acetyl-2-(ethylsulfonyl)-N-(4-(1,1,1,3,3,3-hexafluoro-2-hydroxypropan-2-yl)phenyl)-4,5,6,7-tetrahydrothieno[2,3-c]pyridine-7-carboxamide] | 1.54 | 14.9 | 59.4 | – | – | – | – | – | – | – | – | – | – | – | 99.9 | 113 | > 2.42 | 70.2 | < 9.6
4 | CCS(=O)(=O)c1ccc2c(c1)CCN(C(C)=O)C2C(=O)Nc1ccc(C(F)(C(F)(F)F)C(F)(F)F)cc1 (racemic) [Example 7, 2-Acetyl-6-(ethylsulfonyl)-N-(4-(perfluoropropan-2-yl)phenyl)-1,2,3,4-tetrahydroisoquinoline-1-carboxamide] | > 2.42 | < 9.6 | 79.7 | 72 | 21.1 | 4870 | 703 | 39.9 | 4.02 | 83.5 | 20300 | 1080 | 37.6 | 1.23 | 99.6 | 12.4 | 1.26 | 61.0 | 18.4
